Assay results from PMC4893628, “Chalcone-based Selective Inhibitors of a C4 Plant Key Enzyme as Novel Potential Herbicides” (Scientific Reports, 2016).
Like-named read-outs stand apart in the source and are kept apart here.

What was measured:
Bacillus subtilis 168 = assay: Bacterial growth in microscale cultivation, B. subtilis; format: cell-based; conditions: for activity at 4 µM / activity at 40 µM / activity at 400 µM / Lag Phase: relative to control; for Influence on bacterial growth: highest concentration tested (10× IC50) if not stated otherwise
Method in brief: (§1)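 In a BioLector microscale system shaken at 1200 rpm, growth was tracked by backscatter at 620 nm, and final signal, growth rate (h⁻¹) and lag-phase length were scored against DMSO-only controls. Starting OD600 was 0.5, or 0.25 for B. subtilis. Inhibitors came from DMSO stocks, with trans-chalcone capped at 400 μM and 2'-hydroxychalcone at 100 μM.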

[1] = system: Escherichia coli K-12 MG1655; assay: Bacterial growth in microscale cultivation, E. coli; format: cell-based; conditions: relative to control; for activity at 4 µM / activity at 40 µM / activity at 400 µM: Escherichia coli
Method in brief: as §1

[2] = system: Pseudomonas putida KT2440; assay: Bacterial growth in microscale cultivation, P. putida; format: cell-based; conditions: for activity at 4 µM / activity at 40 µM / activity at 400 µM: Pseudomonas putida; for activity at 4 µM / activity at 40 µM / activity at 400 µM / Lag Phase: relative to control
Method in brief: as §1

F. trinervia PEPC = molecular target: T1, F. trinervia PEPC (Flaveria trinervia, UniProt P30694); assay: biochemical; format: biochemical
T1 construct: the full-length ppcA gene of PEPC from F. trinervia (EMBL-Bank X61304); made in house; host or cells: Escherichia coli BL21(DE3)
T1 sequence (P30694 1-966): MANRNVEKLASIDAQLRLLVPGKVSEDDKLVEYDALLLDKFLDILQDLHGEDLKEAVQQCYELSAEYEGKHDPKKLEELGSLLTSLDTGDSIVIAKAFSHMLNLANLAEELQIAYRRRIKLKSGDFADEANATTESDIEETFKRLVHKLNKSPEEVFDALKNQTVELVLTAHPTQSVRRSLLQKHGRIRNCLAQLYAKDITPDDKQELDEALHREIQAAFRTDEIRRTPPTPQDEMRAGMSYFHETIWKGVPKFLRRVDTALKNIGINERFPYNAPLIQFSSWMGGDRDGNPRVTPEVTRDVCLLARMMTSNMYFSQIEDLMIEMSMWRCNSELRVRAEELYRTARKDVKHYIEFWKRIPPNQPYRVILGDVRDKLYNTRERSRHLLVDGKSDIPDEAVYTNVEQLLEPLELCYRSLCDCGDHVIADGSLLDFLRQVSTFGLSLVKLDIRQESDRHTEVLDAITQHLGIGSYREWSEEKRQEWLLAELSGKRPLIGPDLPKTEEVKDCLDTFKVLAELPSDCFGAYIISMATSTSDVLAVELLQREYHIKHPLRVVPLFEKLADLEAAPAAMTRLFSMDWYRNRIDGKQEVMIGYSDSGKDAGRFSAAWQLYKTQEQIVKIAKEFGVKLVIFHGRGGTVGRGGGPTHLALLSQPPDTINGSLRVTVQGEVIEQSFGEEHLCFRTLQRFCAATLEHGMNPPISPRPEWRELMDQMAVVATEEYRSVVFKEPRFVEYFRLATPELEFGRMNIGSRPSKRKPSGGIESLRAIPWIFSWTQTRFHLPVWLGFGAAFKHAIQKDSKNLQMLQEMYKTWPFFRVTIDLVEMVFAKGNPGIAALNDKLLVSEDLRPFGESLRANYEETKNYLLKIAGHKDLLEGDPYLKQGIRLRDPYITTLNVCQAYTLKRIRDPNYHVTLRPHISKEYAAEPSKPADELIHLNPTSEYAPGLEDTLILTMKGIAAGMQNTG

In the case of `O=C(/C=C/c1ccccc1)c1ccc(O)cc1O` [Compound 4, 2′,4′-Dihydroxychalcone], the activity at 4 µM (Bacillus subtilis 168; Bacillus subtilis, 168, complex medium, 4 µM, read-out: Final Backscatter) is reported as 92.2%, the activity at 4 µM (Bacillus subtilis 168; Bacillus subtilis, 168, complex medium, 4 µM, read-out: Growth rate) is reported as 128% and the activity at 40 µM (Bacillus subtilis 168; Bacillus subtilis, 168, complex medium, 40 µM, read-out: Final Backscatter) is reported as 94.3%. For the same compound, the activity at 40 µM (Bacillus subtilis 168; Bacillus subtilis, 168, complex medium, 40 µM, read-out: Growth rate) was 97.4%, the activity at 400 µM (Bacillus subtilis 168; Bacillus subtilis, 168, complex medium, 400 µM, read-out: Final Backscatter) was 81.5% and the activity at 400 µM (Bacillus subtilis 168; Bacillus subtilis, 168, complex medium, 400 µM, read-out: Growth rate) was 92.7%. It also gave an activity at 4 µM (Bacillus subtilis 168; Bacillus subtilis, 168, minimal medium, 4 µM, read-out: Final Backscatter) of 96.6%, an activity at 4 µM (Bacillus subtilis 168; Bacillus subtilis, 168, minimal medium, 4 µM, read-out: Growth rate) of 91.5% and an activity at 40 µM (Bacillus subtilis 168; Bacillus subtilis, 168, minimal medium, 40 µM, read-out: Final Backscatter) of 95.7%. For the same compound, the activity at 40 µM (Bacillus subtilis 168; Bacillus subtilis, 168, minimal medium, 40 µM, read-out: Growth rate) was 108%, the activity at 400 µM (Bacillus subtilis 168; Bacillus subtilis, 168, minimal medium, 400 µM, read-out: Final Backscatter) was 77.3% and the activity at 400 µM (Bacillus subtilis 168; Bacillus subtilis, 168, minimal medium, 400 µM, read-out: Growth rate) was 75.2%. The “Influence on bacterial growth” value (Bacillus subtilis 168; Complex medium) was “fbs↓ lag↑”, the “Influence on bacterial growth” value (Bacillus subtilis 168; Minimal medium) was “fbs↓, lag↑” and the “Lag Phase” value (Bacillus subtilis 168; complex medium, 4 µM) was 107,7%. The “Lag Phase” value (Bacillus subtilis 168; complex medium, 40 µM) was 107,7%, the “Lag Phase” value (Bacillus subtilis 168; complex medium, 400 µM) was 166,5% and the “Lag Phase” value (Bacillus subtilis 168; minimal medium, 4 µM) was 97,7%. The “Lag Phase” value (Bacillus subtilis 168; minimal medium, 40 µM) was 100,0%, the “Lag Phase” value (Bacillus subtilis 168; minimal medium, 400 µM) was 129,1% and the activity at 4 µM ([1]; MG1655, complex medium, 4 µM, read-out: Final Backscatter) was 101%. The activity at 4 µM ([1]; MG1655, complex medium, 4 µM, read-out: Growth rate) was 79.6%, the activity at 40 µM ([1]; MG1655, complex medium, 40 µM, read-out: Final Backscatter) was 104% and the activity at 40 µM ([1]; MG1655, complex medium, 40 µM, read-out: Growth rate) was 97.2%. For the same compound, the activity at 400 µM ([1]; MG1655, complex medium, 400 µM, read-out: Final Backscatter) was 100%, the activity at 400 µM ([1]; MG1655, complex medium, 400 µM, read-out: Growth rate) was 89.4% and the activity at 4 µM ([1]; MG1655, minimal medium, 4 µM, read-out: Final Backscatter) was 103%. The activity at 4 µM ([1]; MG1655, minimal medium, 4 µM, read-out: Growth rate) was 79%, the activity at 40 µM ([1]; MG1655, minimal medium, 40 µM, read-out: Final Backscatter) was 99.3% and the activity at 40 µM ([1]; MG1655, minimal medium, 40 µM, read-out: Growth rate) was 77.8%. The activity at 400 µM ([1]; MG1655, minimal medium, 400 µM, read-out: Final Backscatter) was 102%, the activity at 400 µM ([1]; MG1655, minimal medium, 400 µM, read-out: Growth rate) was 76.5% and the “Lag Phase” value ([1]; complex medium, 4 µM) was 102,2%. The “Lag Phase” value ([1]; complex medium, 40 µM) was 101,8%, the “Lag Phase” value ([1]; complex medium, 400 µM) was 101,5% and the “Lag Phase” value ([1]; minimal medium, 4 µM) was 100,7%. The “Lag Phase” value ([1]; minimal medium, 40 µM) was 99,3%, the “Lag Phase” value ([1]; minimal medium, 400 µM) was 101,1% and the lag phase ([2]; 400 μM) was “slight increase in the lag phase”. The activity at 4 µM ([2]; KT2440, complex medium, 4 µM, read-out: Final Backscatter) was 97.8%, the activity at 4 µM ([2]; KT2440, complex medium, 4 µM, read-out: Growth rate) was 101% and the activity at 40 µM ([2]; KT2440, complex medium, 40 µM, read-out: Final Backscatter) was 102%. The activity at 40 µM ([2]; KT2440, complex medium, 40 µM, read-out: Growth rate) was 100%, the activity at 400 µM ([2]; KT2440, complex medium, 400 µM, read-out: Final Backscatter) was 100% and the activity at 400 µM ([2]; KT2440, complex medium, 400 µM, read-out: Growth rate) was 101%. It also gave an activity at 4 µM ([2]; KT2440, minimal medium, 4 µM, read-out: Final Backscatter) of 102%, an activity at 4 µM ([2]; KT2440, minimal medium, 4 µM, read-out: Growth rate) of 94.1% and an activity at 40 µM ([2]; KT2440, minimal medium, 40 µM, read-out: Final Backscatter) of 102%. It also gave an activity at 40 µM ([2]; KT2440, minimal medium, 40 µM, read-out: Growth rate) of 98.3%, an activity at 400 µM ([2]; KT2440, minimal medium, 400 µM, read-out: Final Backscatter) of 107% and an activity at 400 µM ([2]; KT2440, minimal medium, 400 µM, read-out: Growth rate) of 93.9%. The “Lag Phase” value ([2]; complex medium, 4 µM) was 105,0%, the “Lag Phase” value ([2]; complex medium, 40 µM) was 106,6% and the “Lag Phase” value ([2]; complex medium, 400 µM) was 123,2%. For the same compound, the “Lag Phase” value ([2]; minimal medium, 4 µM) was 108,7%, the “Lag Phase” value ([2]; minimal medium, 40 µM) was 108,3% and the “Lag Phase” value ([2]; minimal medium, 400 µM) was 97,7%. The “Selectivity C4/C3” value (F. trinervia PEPC; C4 PEPC over C3 isoform) was 2.1 fold and the IC50 (F. trinervia PEPC; C4 PEPC, read-out: IC50 F. trinervia PEPC) was 25.2 ± 1.3 µM.
